# From patent US20220411525A1, “BCMA AS A TARGET FOR T CELL REDIRECTING ANTIBODIES IN B CELL LYMPHOMAS” (Janssen Pharmaceutica NV, priority 2021, published 2022)
# What was measured:
# primary CLL cells = test: BCMA level by flow cytometry on primary CLL cells after γ-secretase inhibition; assay type: cell-based, human; conditions: 100 nM
# Method: Primary CLL samples were stained for BCMA expression by flow cytometry and compared to isotype controls. […] As provided in FIG. 2A, CLL cells were cultured and basal levels of BCMA were assessed by flow cytometry and compared to isotype controls. (n=25). For FIG. 2B, CLL cells were treated for 24 or 48h with 0nM or 100 nM γ-secretase inhibitor and BCMA was assessed by flow cytometry. Values are represented as fold increase compared to medium control. (n=12-28). FIG. 2C provides basal levels of BCMA compared to isotype control among CLL patients with mutated or unmutated IgVH. (n=4-10). […] (n=4-12) The P value was calculated by Wilcoxon test (FIGS. 2A-2B), Mann Whitney test (FIGS. 2B, 2C, 2D) or paired t test (FIGS. 2E, F). […]
# Flow cytometry. […] After antibody staining, samples were washed using PBA and acquired on BD FACS Canto or LSR Fortessa flow cytometer and analysed with FlowJo v10. To quantify number of cells using flow cytometry, 123count eBeads™ Counting Beads (Thermo Fisher Scientific) according to manufacturer's instructions. BCMA molecules per cell were determined by usage of PE Phycoerythrin Fluorescence Quantitation Kit (BD Biosciences).
# BCMA characterization by flow cytometry and quantitative polymerase chain reaction. […] After 24 or 48 h BCMA was detected by flow cytometry as described above. Relative expression was calculated compared to isotype controls. […]
# [1] = test system: B cell malignancy cell lines; test: Viability of cell lines under γ-secretase inhibition; assay type: cell-based; conditions: 100nM γ-secretase inhibitor, 24-48 h
# Method: Since BCMA is known to be cleaved off by γ-secretase, it was evaluated whether inhibition of this enzyme would lead to enhanced BCMA levels on these B cell lines. To assess this, the different B cell malignancy lines were incubated for 24-48 h with 100nM γ-secretase inhibitor (Ly411575) and BCMA fold increase was compared to unstimulated cells. Viability of the different cell lines was not affected by γ-secretase inhibition (FIG. 7A). […] Besides the cell lines which already had high basal levels of BCMA (U266, RPMI-8226, MWCL1 and BCWM.1) also cell lines which had low basal expression of BCMA, such as JeKo-1 and OCI-Ly7 were able to upregulate BCMA after γ-secretase inhibition (FIG. 1B). […] This was studied by determination of soluble BCMA (sBCMA) levels in supernatants of B cell malignancy cell lines, which were cultured for 24 or 48h in the absence or presence of γ-secretase inhibitor. Indeed, sBCMA levels were detectable upon culture of different selected cell lines (except for Jurkat), and increased upon longer culture times (FIG. 1C).
structure (smiles),measurement,setting,value
C[C@H](NC(=O)[C@@H](O)c1cc(F)cc(F)c1)C(=O)N[C@@H]1C(=O)N(C)c2ccccc2-c2ccccc21 [Ly411575],BCMA level on CLL cells,primary CLL cells; 24 h,small but significant upregulation of BCMA
same,BCMA level on CLL cells,"primary CLL cells; 48 h, compared to 24 h",further enhanced
same,Viability of the different cell lines,[1],not affected
